Measured values reported in patent US20220264883A1, “IMIDAZOTHIAZOLE COMPOUNDS AND METHODS FOR TREATING PLANT NEMATODE INFECTIONS” (The Governing Council of the University of Toronto, priority 2019, published 2022).
Several values for one entry are separate records, joined by “and”; a condition that tells them apart may be missing. Equal values may be shown once.

What was measured:
C. elegans [1] = assay: C. elegans viability at a single concentration (Table 3); type: in vivo; conditions: Caenorhabditis elegans; 100 μM
Method: (§1) Forty microliters of an HB101 bacterial suspension in liquid NGM (see above) was added to each well of a 96-well flat-bottom culture plate, after which approximately 25 synchronized L1 worms, in 10 μl of M9 buffer (see ref. 59 for the recipe), were added to each well. The synchronized L1 worms were obtained from an embryo preparation performed the previous day (see ref. 59 for the protocol). For the L1 assays, 0.5 μl of chemical solution (or DMSO alone) was immediately added to the wells using a multichannel pipette, the final DMSO concentration is 1% (v/v). The worms were incubated for 3 days at 20° C. and the number of viable animals was counted. […] Although the counts were performed after 3 days of incubation in the chemical, it was noted that the L1s were dead within 24 hours of the addition of the chemicals. For the L2/L3 assays, the worms were incubated in the absence of chemical for 1 day at 20° C. until they reached the L2/L3 stage, at which point chemical was added as described above. The worms were then allowed to incubate for 2 days at 20° C. and the number of viable animals was counted as described for the L1 assay. For the L4 assays, the worms were incubated for 2 days at 20° C. before the addition of chemicals. The L4-stage worms were then incubated in chemical for an additional day before quantifying the number of viable animals. The adult assays were performed the same way as the L4 assays, however HT115 E. coli carrying the empty dsRNA expressing vector L4440 was used in place of HB101 and the worms were cultured at 25° C. as opposed to 20° C. for the entirety of the experiment. The HT115 suspension was made by concentrating a bacterial culture, with an OD600 of ˜ 0.8, five-fold with liquid NGM containing 1 mM IPTG and 100 μg/ml carbenicillin. The HT115 cells were induced with 1 mM IPTG for one hour before concentrating with NGM.
(§2) The ability of exemplary compounds of the application to kill C. elegans at 100 μM (except for compound If which was tested at 50 μM) and to affect the mobility of M. chitwoodi at 45 μM was tested as described above for M. incognita infective juveniles. Percent mobility was measured after 2 days of chronic exposure to test compounds (Table 3).

M. chitwoodi = assay: Root-knot nematode M. chitwoodi mobility (Table 3); type: in vivo, Meloidogyne chitwoodi; conditions: 45 μM, 2 days of chronic exposure
Method: (§3) M. incognita (Kofoid & White) Chitwood Race 1 (originally isolated in Maryland) was used for all experiments, and was maintained on pepper (Capsicum annuum L.) cv. PA-136 in a greenhouse as previously described^64. Infective J2 juveniles were collected as described in ref.65. The microwell dose-response experiments were carried out similarly to previously described protocols^64, 66. In brief, 100 J2s, in 10 μL of deionized water, were added to the wells of 96-well polystyrene plates, after which 190 μL of deionized water containing dissolved chemical, or DMSO alone, was added to each well. The chemicals were tested at 45 μM, and the final concentration of DMSO in each well was 0.5% (v/v). The wells were covered with a plastic adhesive strip, and the lids of the plates were sealed with parafilm. The plates were incubated at 25° C. The mobile fraction of worms was quantified by counting the number of mobile and immobile worms after 2 days of incubation, and then dividing the number of mobile worms by the total number of worms in the well. Three technical replicates were performed for each treatment, and an average value for the mobile fraction of worms was calculated across the three replicates. The percent effectiveness at inhibiting nematode movement was calculated by dividing the average value for the chemical treatment by the average value for the DMSO control, then subtracting this value from 1, and then multiplying by 100.
(§4) M. chitwoodi race 1 (the strain commonly found in the pacific northwest of the United States) was used for all experiments, and was maintained on tomato plants (Solanum lycopersicum ‘Rutgers’) as previously described^73. The M. chitwoodi in vitro assays were performed identically to the M. incognita in vitro assays (see above).
as §2

C. elegans [2] = assay: C. elegans minimum lethal concentration dose-response; type: in vivo, Caenorhabditis elegans; conditions: for minimal effective concentration: Caenorhabditis elegans, C. elegans viability
Method: as §1
Compounds Ia to Im, dose-response assays were performed with C. elegans. 8 of the compounds killed C. elegans with minimum lethal concentrations less than or equal to 100 μM (Table 6). Compounds Ia, Ic, and Ij were the most potently lethal nematicides in this assay, having minimum lethal concentrations of 6.25 μM and below. The positive control nematicide tioxazafen killed nematodes at 3.13 μM and above.

M. incognita J2 larvae = assay: Meloidogyne incognita in vitro assays (J2 movement); type: in vivo; conditions: 45 μM, 2 days, relative to DMSO control
Method: as §3

M. chitwoodi J2 larvae = assay: Meloidogyne chitwoodi in vitro assays (J2 movement); type: in vivo; conditions: 45 μM, 2 days, relative to DMSO control
Method: as §3, §4

M. incognita = assay: Meloidogyne incognita infectivity assays (tomato roots in soil); type: in vivo; conditions: 45 μM in soil, 8 weeks, eggs per mg root relative to DMSO control
Method: (§5) An M. incognita population originally collected from grape (Vitis vinifera) in Parlier, Calif., was used for all experiments, and they were maintained on tomato plants (Solanum lycopersicum ‘Rutgers’) as previously described^73. Infective J2 juveniles were collected as described in^73. For the infectivity assays, 90 grams of soil (1:1 sand:loam mix) was added to each cell of several 6-cell plastic garden packs. The soil was drenched with 18 mL of deionized water containing dissolved chemical or DMSO alone. 2,500 infective J2 juveniles were then added to the soil in 2 mL of deionized water, for a total water volume of 20 mL. The final concentration of the chemicals in water was 45 μM. The DMSO concentration varied from 0.1% to 0.8% (v/v) depending on the stock concentration of the chemical. The highest DMSO concentration was used as the DMSO control. The J2s were incubated in the soil and chemical for 24 hours, after which two- to three-week old tomato seedlings were transplanted into the soil (one plant per cell). Two replicates were performed for each chemical treatment, and four replicates were done for the DMSO controls. The whole experiment was replicated twice, in two different batches on two different days, for a total of four replicates for each chemical treatment, and eight replicates for the DMSO controls. Inoculated plants were grown for 8 weeks in a greenhouse, as described^73, under long-day conditions (16-h photoperiod) with 26/18° C. day/night temperatures. After 8 weeks, the plants were destructively harvested. The tops were removed and discarded, and roots were gently washed with water to remove adhering soil. Eggs were extracted by placing rinsed roots in 0.6% sodium hypochlorite and agitating at 300 rpm for 3 min. Roots were then rinsed over nested 250- and 25.4-μm sieves, with eggs collected from the latter and suspended in water. Roots were dried in a 65° C. oven for at least 24 hours, after which dry roots were weighed. The number of eggs from each plant root was counted on a dissection microscope using a haemocytometer, and the number of eggs per milligram of root was calculated by dividing the total egg number by the mass of the dried root material. An average was taken across the replicates performed on the same day, and then normalized to the DMSO control average. To calculate percent effectiveness at inhibiting reproduction, the normalized values were subtracted from 1, and then multiplied by 100. An average percent effectiveness value was then calculated across the two different batches carried out on different days.

tomato plants = assay: Root mass of tomato plants in the infectivity assays; type: in vivo, Solanum lycopersicum; conditions: 45 μM
Method: as §5

HepG2 cells = assay: HepG2 cell proliferation assay; type: cell-based, human; conditions: for IC50: Alamar Blue
Method: HepG2 cells, which are liver-derived, were counted using a haemocytometer, diluted, and seeded in […] to a final density of 5×10^4 cells/mL in 100 uL of RPMI-1640 medium supplemented with 10% heat inactivated fetal bovine serum (Gibco) and 1.2×Antibiotic-Antimycotic (Gibco). Cells were incubated at 37° C. with 5% CO2 for 24 hours. Subsequently, a 2-fold dilution series of test compound was added to cells at a final volume of 200 uL and incubated at 37° C. with 5% CO2 for 72 hours. After 72 hours, Alamar Blue (Invitrogen) was added to the Hep G2 cells at a final concentration of 0.5× and plates were incubated at 37° C. for 4 hours. Fluorescence was measured at Ex560 nm/Em590 nm and corrected for background from the medium. All assays were performed in technical triplicates and in at least two biological replicates. The IC50 value was defined as the concentration that inhibits cell proliferation by 50% of the untreated control cells.

[3] = tested on: M. incognita infective juveniles; assay: Meloidogyne incognita dose-response experiments (infective J2 juveniles, FIG. 2); type: in vivo; conditions: 5, 15, 45 micromolar; third day after water rinse
Method: M. incognita (Kofoid & White) Chitwood Race 1 (originally isolated in Maryland) was used for all experiments, and were maintained on pepper (Capsicum annuum L.) cv. PA-136 in a greenhouse as previously described^64. Infective J2 juveniles were collected as described in ref. 65. The microwell dose-response experiments were carried out similarly to previously described protocols^64, 66. In brief, 100 J2 s, in 10 μL of deionized water, were added to the wells of 96-well polystyrene plates, after which 190 μL of deionized water containing dissolved chemical, or DMSO alone, was added to each well. The final concentration of DMSO in each well was 0.5% (v/v), except for the water only control which contained no DMSO and no added chemicals. The final concentrations of the chemicals for each dose-response experiment were 5, 15, and 45 μM. The wells were covered with a plastic adhesive strip, and the lids of the plates were sealed with parafilm. The plates were incubated at 25° C. The fraction of active worms was quantified by counting the number of mobile and immobile worms after 1 and 2 days of incubation, and then dividing the number of mobile worms by the total number of worms in the well. After 2 days of incubation, the chemicals were removed and replaced with deionized water (i.e. the water rinse) and the fraction of active worms was quantified 1 day later. A failure of the worms to recover after rinsing with water is consistent with them having been killed by the chemical treatment. Four technical replicates were performed for each treatment.

Arabidopsis thaliana = Arabidopsis thaliana greening experiments; type: in vivo; conditions: 5, 15 and 45 micromolar, greening after 4 days
Method: Greening experiments were performed with Arabidopsis thaliana seeds of wild type Col-0; seeds were surface sterilized in bleach and plated onto 0.5×MS, 0.5% sucrose agar medium supplemented with compounds of interest at 5, 15 and 45 μM concentrations. After 4 d of stratification at 4° C., plates were transferred to a growth chamber (16 h/8 h, 150 μE/m^2) and greening recorded after 4 days. Pictures were recorded by camera (SONY a7s) with FE1.8/55 lens (FE 55 mm F1.8 ZA; SEL55F18Z). Experiments were performed in triplicate for each treatment.

| SMILES | viability at 100 µM (C. elegans [1]) [%] | RKN mobility (M. chitwoodi) [%] | minimal effective concentration (C. elegans [2]) | % effectiveness at reducing M. incognita movement (M. incognita J2 larvae) [%] | % effectiveness at reducing M. chitwoodi movement (M. chitwoodi J2 larvae) [%] | % effectiveness at inhibiting reproduction of M. incognita (M. incognita) [%] | Normalized root mass (relative to DMSO control) (tomato plants) | HepG2 IC50 (HepG2 cells; 72 hours, approximate ppm equivalent) [ppm] | IC50 (HepG2 cells; Homo sapiens, HepG2, 72 hours) [µM] | nematicidal activity on M. incognita infective juveniles [3] | effect on health and greening of Arabidopsis thaliana plants (phytotoxicity) (Arabidopsis thaliana) | times more potent at killing C. elegans than compound Ig (C. elegans [2]; ratio of minimum lethal concentrations) | IC50 (HepG2 cells; 72 hours) [µM] |
| --- | --- | --- | --- | --- | --- | --- | --- | --- | --- | --- | --- | --- | --- |
| Cc1cn2cc(-c3ccc(Cl)cc3)nc2s1 [Compound Ig] | 100 | 82.4 | > 24.9 µg/mL | 0.0 | 5.7 | 44.2 | 1.4 | > 25 | > 100 |  |  |  |  |
| Cc1csc2nc(-c3ccc(F)cc3)cn12 [Compound Ik, 6-(4-fluorophenyl)-3-methylimidazo[2,1-b]thiazole] |  |  | 50 µM and 11.6 µg/mL |  |  | 0.6 | 1.0 |  |  |  |  |  |  |
| Cc1csc2nc(-c3ccc(Br)cc3)cn12 [Compound Il, 6-(4-bromophenyl)-3-methylimidazo[2,1-b]thiazole] |  |  | 25 µM and 7.3 µg/mL |  |  | 8.1 | 1.4 |  |  |  |  |  |  |
| Cc1cn2cc(-c3ccc(Br)cc3)nc2s1 [Compound Im, 6-(4-bromophenyl)-2-methylimidazo[2,1-b]thiazole] |  |  | > 100 µM and > 29.3 µg/mL |  |  | 1.2 | 1.1 |  |  |  |  |  |  |
| Cc1cn2cc(-c3ccc(I)cc3)nc2s1 [Ih] | 95.4 | 82.5 | > 100 µM and > 34 µg/mL | 0.0 | 5.6 | 25.7 | 1.3 |  |  |  |  |  |  |
| Cc1cn2cc(-c3ccc(F)cc3)nc2s1 [Ii] | 100 | 28.9 | > 100 µM and > 23.2 µg/mL | 0.0 |  |  |  |  |  |  |  |  |  |
| O=C(NCCc1ncc(C(F)(F)F)cc1Cl)c1ccccc1C(F)(F)F [fluopyram, reference compound] |  |  |  |  |  |  |  |  |  | most potent compound tested | phytotoxic at 15 and 45 micromolar |  |  |
| c1ccc(-c2noc(-c3cccs3)n2)cc1 [tioxazafen, reference compound] |  |  |  | 55.5 | 40.0 | 43.7 | 1.1 |  |  |  | phytotoxic at 15 and 45 micromolar | more than 32 times | > 100 |
